Where two headings read alike, the source gives them in different places. Marks after values point to notes of the source that are not given here.
What was measured:
[1] = Transport study across EpiIntestinal microtissues; conditions: human
Method: The human EpiIntestinal small intestinal microtissues, consisting of epithelial cells and an underlying lamina propria containing intestinal fibroblasts, were obtained from MatTek Life Sciences (Ashland, USA). Cell culture inserts (8.8 mm ID) were placed in 12-well plates and cells were maintained in 100 µl maintenance medium (MatTek Life Sciences) in the apical compartment and 5 ml maintenance medium in the basolateral compartment upon arrival. The transport studies were performed 1 day after arrival.
(§1) Transport studies were performed in Caco-2 cells, hiPSC-derived IECs and EpiIntestinal microtissues. To that end, Caco-2 cell layers were differentiated for 21 days and hiPSCs were differentiated into IEC layers for 26 days, as described above. EpiIntestinal microtissues were subjected to transport studies 1 day after arrival. […] For all models, PFAS transport was assessed in apical to basolateral, and basolateral to apical direction using HBSS containing a mixture of PFASs containing 1 µM of each PFAS. See Supplementary Data for a detailed description of the method used for the transport studies of the model compounds and PFASs.
(§2) Prior to exposure to the transport study compounds, the cells were washed with transport medium (HBSS; Sigma). […] 100 µL aliquots were collected from the basolateral compartment and replaced with the same volume HBSS at settled time points (0, 15, 30 and 60 min). For basolateral to apical transport in the EpiIntestinal microtissues, 0.2 mL HBSS was added to the apical compartment and 0.5 mL HBSS containing a mixture of PFASs containing 1 µM of each PFAS, was added to the basolateral compartment. 100 µL aliquots were collected from the apical compartment and replaced with the same volume of HBSS at settled time points (0, 15, 30 and 60 min). For apical to basolateral transport across the Caco-2 cell layers and hiPSC-derived IEC layers, 1.2 mL HBSS was added to the basolateral compartment and 0.4 mL HBSS containing either model compounds (10 µM) or a mixture of PFASs containing 1 µM of each PFAS, was added to the apical compartment. 100 µL aliquots were collected from the basolateral compartment and replaced with the same volume of HBSS at settled time points (0, 7.5, 15, 30 and 60 min for the model compounds with both models and the PFASs with the hiPSC-derived IEC layers and 0, 15, 30 and 60 min for PFASs with the Caco-2 cell layers). For basolateral to apical transport, 0.4 mL HBSS was added to the apical compartment and 1.2 mL HBSS containing 10 µM of the model compounds or a mixture of PFASs containing 1 µM of each PFAS, was added to the basolateral compartment. 100 µL aliquots were collected from the apical compartment and replaced with the same volume of HBSS at settled time points (0, 7.5, 15, 30 and 60 min for the model compounds with both models and the PFASs with the hiPSC-derived IEC layers and 0, 15, 30 and 60 min for PFASs with the Caco-2 cell layers). After 60 minutes, all liquid was collected from the apical and basolateral compartment and the cells were lysed in 200 µL RIPA buffer (Thermo Fisher Scientific), and chemicals were quantified in the different compartments (apical, basolateral and cells) in order to calculate the mass balance.
(§3) The apparent permeability coefficient (Papp, cm/s) was calculated using the following equation: […]
where A is the surface area (cm^2), dQ is the amount of the compound transported (nmol) over the respective time interval dt (s) and C0 is the initial concentration in the donor compartment (µM).

[2] = Transport study across Caco-2 cell layers; conditions: human, Caco-2
Method: Human colorectal adenocarcinoma cells (Caco-2, HTB-37) were obtained from American Type Culture Collection (ATCC, Manassas, VA). Cells were cultured in a humidified incubator (37°C, 5% CO2) in Dulbecco’s modified Eagle’s medium (DMEM) supplemented with 10% heat-inactivated fetal bovine serum (Gibco, Thermo Fisher Scientific, Waltham, MA), 1% non-essential amino acids (Gibco) and 1% penicillin/streptomycin (Sigma). For experiments, Caco-2 cells below passage number 50 were used within 10 passages. They were harvested at 80% confluence using Trypsin/EDTA (0.25%/0.05%; PAN Biotech, Aidenbach, Germany) and seeded at a density of 4 × 10^5 cells/cm^2 into inserts with a polycarbonate membrane (0.4 µm pore, Corning, New York, NY). After 21 days of differentiation (using 500 µl cell culture medium in the apical and 1500 µl in the basolateral compartment), monolayer integrity was determined by measuring transepithelial electrical resistance (TEER) with a Millicell ERS Volt-Ohm meter (Millipore, Bedford, MA).
as §1, §2, §3

[3] = Transport study across hiPSC-derived IEC layers; conditions: human
Method: For differentiation into IECs, definitive endoderm cells were subsequently differentiated into intestinal stem cells by changing medium into DMEM/F12 containing 2% fetal bovine serum, 1% GlutaMAX (Gibco) and 250 ng/ml FGF2 (R&D Systems). After 4 days, cells were dissociated using Accutase and seeded onto polyester Transwell inserts (0.4 µm, Corning) coated with Growth Factor Reduced Matrigel #356231. Cells were cultured for 7 days in intestinal differentiation medium (DMEM/F-12 containing 2% fetal bovine serum, 1% non-essential amino acids (Gibco), 1 × B27 (Gibco), 1 × N2 (Gibco), 1% penicillin/streptomycin (Gibco) and 2 mM L-glutamine (Gibco)) supplemented with 20 ng/ml EGF (R&D Systems) and 30 µM Forskolin (Sigma). ROCK inhibitor, y-27632 (final concentration 10 µM; Stem Cell Technologies), was added during the initial 24 h after seeding to reduce cell death. The cells were subsequently cultured for 12 days in intestinal differentiation medium supplemented with 20 ng/ml EGF, 30 µM Forskolin, 5 µM 5-aza-2′-deoxycytidine (Sigma), 20 µM PD98059 (Stem Cell Technologies) and 0.5 µM A-83–01 (Sigma). The medium was refreshed every 2–3 days. Barrier integrity was determined by measuring apical to basolateral translocation of Lucifer yellow (see Supplementary Data for a detailed description).
as §1
as §2, with “layers).” for “layers). After 60 minutes, all liquid was collected from the apical and basolateral compartment and the cells were lysed in 200 µL RIPA buffer (Thermo Fisher Scientific), and chemicals were quantified in the different compartments (apical, basolateral and cells) in order to calculate the mass balance.”

Caco-2 model = conditions: cited from earlier work
EpiIntestinal model = conditions: apical to basolateral, ref Ayehunie et al. (2005); cited from earlier work

Compound	Papp A→B at 60 min, 1 µM [1]	Papp B→A at 60 min, 1 µM [1]	efflux ratio at 60 min, 1 µM [1]	Papp A→B at 60 min, 1 µM [2]	Papp B→A at 60 min, 1 µM [2]	efflux ratio at 60 min, 1 µM [2]	Papp A→B at 60 min, 1 µM [3]	Papp B→A at 60 min, 1 µM [3]	efflux ratio at 60 min, 1 µM [3]	Average Papp A - B (Caco-2 model; ref Artursson et al. 1991)	Average Papp A - B (Caco-2 model; ref Ayehunie et al. 2018)	Average Papp A - B (Caco-2 model; ref Yazdanian et al. 1998)	Papp A→B at 60 min, 10 µM [2]	Papp B→A at 60 min, 10 µM [2]	Average Papp A–B (EpiIntestinal model)	Papp A→B at 60 min, 10 µM [3]	Papp B→A at 60 min, 10 µM [3]	other results
O=C(O)C(F)(F)C(F)(F)C(F)(F)C(F)(F)C(F)(F)C(F)(F)C(F)(F)F [PFOA, perfluorooctanoic acid]	7.31 ± 0.43 ×10⁻⁶ cm/s	6.99 ± 0.82 ×10⁻⁶ cm/s	0.96	4.23 ± 0.41 ×10⁻⁶ cm/s	5.75 ± 0.97 ×10⁻⁶ cm/s	1.36	3.27 ± 0.45 ×10⁻⁶ cm/s	5.3 ± 0.42 ×10⁻⁶ cm/s	1.62	–	–	–	–	–	–	–	–	–
O=S(=O)(O)C(F)(F)C(F)(F)C(F)(F)C(F)(F)C(F)(F)C(F)(F)C(F)(F)C(F)(F)F [PFOS, perfluorooctane sulfonate]	5.97 ± 0.05 ×10⁻⁶ cm/s	3.31 ± 0.22 ×10⁻⁶ cm/s	0.55	2.88 ± 0.2 ×10⁻⁶ cm/s	1.06 ± 11 ×10⁻⁶ cm/s	0.37	0.63 ± 0.08 ×10⁻⁶ cm/s	0.82 ± 0.17 ×10⁻⁶ cm/s	1.31	–	–	–	–	–	–	–	–	–
CC(C)NCC(O)COc1cccc2ccccc12 (stereo not shown) [Propranolol, propranolol]	–	–	–	–	–	–	–	–	–	41.9 ×10⁻⁶ cm/s	12.9 ×10⁻⁶ cm/s	21.8 ×10⁻⁶ cm/s	11.8 ± 1.07 ×10⁻⁶ cm/s	8.13 ± 0.12 ×10⁻⁶ cm/s	9.4 ± 5.4^b × 10^–6 cm/s	26.7 ± 1.4 ×10⁻⁶ cm/s	17.9 ± 0.93 ×10⁻⁶ cm/s	Average Papp A - B (Caco-2 model; ref Grès et al. 1998): 34.4 ×10⁻⁶ cm/s; Average Papp A - B (Caco-2 model; ref Logoyda et al. 2018): 36.13 ×10⁻⁶ cm/s; Average Papp A - B (Caco-2 model; ref Nožinić et al. 2010): 0.12 ×10⁻⁶ cm/s; Average Papp A - B (Caco-2 model; ref Walgren et al. 1999): 35.3 ×10⁻⁶ cm/s
C=C[C@H]1C[N@@]2CC[C@H]1C[C@@H]2[C@@H](O)c1ccnc2ccc(OC)cc12 [Quinidine, quinidine]	–	–	–	–	–	–	–	–	–	–	–	–	–	–	7.9 ± 2.7^a × 10^–6 cm/s	22.3 ± 0.4 ×10⁻⁶ cm/s	25.5 ± 1.17 ×10⁻⁶ cm/s	–
CC(=O)CC(c1ccccc1)c1c(O)c2ccccc2oc1=O (stereo not shown) [Warfarin, warfarin]	–	–	–	–	–	–	–	–	–	38.3 ×10⁻⁶ cm/s	28.6 ×10⁻⁶ cm/s	21.1 ×10⁻⁶ cm/s	17.9 ± 1.39 ×10⁻⁶ cm/s	24.5 ± 0.94 ×10⁻⁶ cm/s	36.7 ± 16.8^a × 10^–6 cm/s	–	–	Average Papp A - B (Caco-2 model; ref Gschwind et al. 2013): 22.7 ×10⁻⁶ cm/s

From paper PMC11489206, “Transport of perfluoroalkyl substances across human induced pluripotent stem cell-derived intestinal epithelial cells in comparison with primary human intestinal epithelial cells and Caco-2 cells” (Archives of Toxicology, 2024)
